Data published in PMC9791066, “Investigations into the antibacterial effects and potential mechanism of gambogic acid and neogambogic acid” (Frontiers in Microbiology, 2022).

Assays:
EfaUPPS (L91A) = biological target: T1, EfaUPPS (L91A) (Enterococcus faecalis, UniProt Q831K9, L97A); experiment: UPPS inhibition assay, EfaUPPS L91A mutant; format: biochemical; details: for effect of mutation on inhibitory effect of compound on EfaUPPS enzyme activity: L91A mutant compared with wild-type; for IC50 fold higher than that of the wild-type: L91A mutant vs wild-type (~3 μM)
T1 construct: His tag; made in house; host or cells: E. coli BL21(DE3)
T1 sequence (Q831K9 whole entry L97A): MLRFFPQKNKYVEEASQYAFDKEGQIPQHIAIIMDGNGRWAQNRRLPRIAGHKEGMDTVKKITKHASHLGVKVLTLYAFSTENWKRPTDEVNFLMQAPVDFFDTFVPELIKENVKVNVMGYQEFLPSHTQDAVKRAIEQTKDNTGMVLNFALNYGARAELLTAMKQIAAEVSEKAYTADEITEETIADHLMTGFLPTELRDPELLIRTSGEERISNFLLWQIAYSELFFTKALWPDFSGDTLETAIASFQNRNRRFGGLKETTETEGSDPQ
Protocol: (§1) The EfaUPPS site-directed mutagenesis was generated using QuikChange site-directed mutagenesis kit (Agilent) according to the manufacturer’s instructions. The purification of site-directed mutation was using a similar strategy as described above.
(§2) The UPPS inhibition assay was carried out by measuring the fluorescence of the reaction mixture in a black 96-well microtiter plate (Corning, United States). […] After the indicated incubation period, the reaction was terminated by the addition of 10 μl of 0.5 M EDTA solution. Transferred 50 μl of the reaction mixture into a new 96-well microtiter plate, and quenched with an equal volume of Master Reaction Mix (Pyrophosphate Assay Kit, Sigma-Aldrich, USA) for 30 min. The UPPS inhibitory activity was performed by calculating the fluorescence percentage through determining the fluorescence absorbance of reaction mixture at 316 and 456 nm. Data of UPPS inhibitory activities were plotted versus compound concentrations on a semi-log scale using GraphPad Prism7. All the results were the means of at least three biological replicates.

EfaUPPS (I43A) [1] = biological target: T2, EfaUPPS (I43A) (Enterococcus faecalis, UniProt Q831K9, I49A); experiment: UPPS inhibition assay, EfaUPPS I43A mutant; format: biochemical
T2 construct: His tag; made in house; host or cells: E. coli BL21(DE3)
T2 sequence (Q831K9 whole entry I49A): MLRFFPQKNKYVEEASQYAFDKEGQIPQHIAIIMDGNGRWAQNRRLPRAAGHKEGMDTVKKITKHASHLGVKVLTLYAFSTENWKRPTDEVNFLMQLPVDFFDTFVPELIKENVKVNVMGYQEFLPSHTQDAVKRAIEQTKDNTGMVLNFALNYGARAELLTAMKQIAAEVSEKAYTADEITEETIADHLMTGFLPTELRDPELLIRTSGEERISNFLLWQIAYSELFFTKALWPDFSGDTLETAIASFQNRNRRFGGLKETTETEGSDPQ
Protocol: as §1, §2

EfaUPPS (L146A) = biological target: T3, EfaUPPS (L146A) (Enterococcus faecalis, UniProt Q831K9, L152A); experiment: Microscale thermophoresis binding assay, EfaUPPS L146A; details: MST, no binding
T3 construct: His tag; made in house; host or cells: E. coli BL21(DE3)
T3 sequence (Q831K9 whole entry L152A): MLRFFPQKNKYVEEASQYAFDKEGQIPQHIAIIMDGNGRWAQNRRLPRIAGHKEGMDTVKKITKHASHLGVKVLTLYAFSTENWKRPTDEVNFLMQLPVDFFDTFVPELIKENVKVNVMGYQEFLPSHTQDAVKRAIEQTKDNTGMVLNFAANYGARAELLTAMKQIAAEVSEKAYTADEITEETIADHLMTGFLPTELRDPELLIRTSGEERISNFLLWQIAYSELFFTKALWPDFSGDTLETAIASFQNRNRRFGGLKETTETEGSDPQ
Protocol: (§3) To characterize the binding affinity between EfaUPPS and GA or NGA, the MST binding assay was performed as previously described ([Lin et al., 2020]). In brief, His-tagged EfaUPPS and site-directed mutated EfaUPPS were labeled with the NT- 647-NHS dye using the Monolith NTTM Protein Labeling Kit RED-NHS (NanoTemper Technologies). Two-fold serially diluted GA or NGA was mixed with 10 nM of labeled EfaUPPS or its derivatives in 10 μl of binding buffer (137 mM NaCl, 2.7 mM KCl, 10 mM Na2HPO4, 1.8 mM KH2PO4, and 0.05% Tween-20, pH 7.8), incubated for 15 min, at room temperature. And then, loaded the mixtures into NT.115 premium coated capillaries (NanoTemper Technologies). MST trace signals were collected from the IR laser on to off for about 20 s, under the 5% LED power and high MST power mode. The change of molecular thermophoresis was monitored by standardized fluorescence value Fnorm, and the binding curve was plotted according to the values of Fnorm. The formed complex affinity was analyzed by MO Affinity Analysis software version 2.3. Apparent dissociation constants (Kd) were calculated using nonlinear fitting assuming one specific binding site with the GraphPad Prism 7 software with the following formula: Y = B^∗Max X/KD + X.
(§4) (^∗ where BMax is the maximum theoretical specific binding; here BMax = 1).

EfaUPPS (I43A) [2] = biological target: T2, EfaUPPS (I43A); experiment: Microscale thermophoresis binding assay, EfaUPPS I43A
Protocol: as §3, §4

[3] = system: clinical strains of S. aureus, E. faecalis, L. monocytogenes; experiment: MIC against clinical isolates; format: cell-based; details: 10 more clinical strains of each species
Source text: Enterococcus faecalis ATCC29212 and Staphylococcus aureus ATCC29213 were purchased from the […]. Methicillin-resistant Staphylococcus aureus (MRSA), Listeria monocytogenes ATCC19117, Escherichia coli ATCC25922, Escherichia coli BAS849, DH5α and BL21 were from Lin lab storage. The clinical strains used in this study were isolated and identified from Affiliated Hospital of Nanjing University of Chinese Medicine and Nanjing Drum Tower Hospital, China. All the bacteria strains were routinely cultured in Luria-Bertani (LB) broth media (1% tryptone, 0.5% yeast extract, and 1% NaCl) at 37°C, except as noted.
Antibacterial activities were performed by examining the minimal inhibitory concentrations (MICs), which was determined by a microtiter broth dilution method as previously described ([Cotsonas King and Wu, 2009]), with minor modifications. Briefly, 96-well plates (Corning) were inoculated with 100 μl of LB broth per well containing 7 × 10^5 CFU/mL bacteria, followed by adding 100 μl of LB broth containing two-fold serial dilutions of the test compounds. Tetracycline (Tet) and ampicillin (Amp) and viridicatumtoxins were used as the positive controls. After 18 h of incubation, the MIC was determined to be the lowest concentration without visible bacterial growth. The results were the averages of at least three biological replicates.

E. faecalis ATCC29212 = experiment: Bacterial activity (bactericidal) test; format: cell-based, Enterococcus faecalis; details: 2 μg/mL
Protocol: The E. faecalis ATCC29212 were pre-cultured in LB broth at 200 rpm, 37°C overnight, and then the cultures were diluted to 7 × 10^5 CFU/mL by LB broth. A 96-well microtiter plate was inoculated with 200 μl the diluted cultures per well containing 0.1 mg/mL Resazurin with or without 2 μg/mL GA or NGA, followed by incubation at 37°C for 24 h, and then imaged. Three biological replicates were performed for each sample. To visualized the potential bactericidal properties for GA and NGA, the 24 h of GA/NGA-pretreated E. faecalis were coated on the plate to continue cultured overnight. The bactericidal properties of the compounds were determined by counting the bacterial CFUs.

EfaUPPS = biological target: T4, EfaUPPS (Enterococcus faecalis, UniProt Q831K9); experiment: Compound/substrate-UPPS binding competition experiment; format: biochemical; details: 0-20 μM FPP, 1/2/5 μM compound
T4 construct: His tag; made in house; host or cells: E. coli BL21(DE3)
T4 sequence (Q831K9 whole entry): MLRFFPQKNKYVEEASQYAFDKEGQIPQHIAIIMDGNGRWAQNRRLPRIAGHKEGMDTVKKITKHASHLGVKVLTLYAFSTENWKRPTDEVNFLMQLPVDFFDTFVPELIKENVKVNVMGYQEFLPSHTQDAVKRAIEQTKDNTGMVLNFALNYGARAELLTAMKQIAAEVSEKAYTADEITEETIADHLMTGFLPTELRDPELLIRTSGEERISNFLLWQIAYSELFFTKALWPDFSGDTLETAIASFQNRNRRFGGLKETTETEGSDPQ
Protocol: The compound/substrate-UPPS binding competition experiment was performed as the above descriptions. The difference is that the reaction buffer containing 35 μM IPP, different concentrations of FPP ranged from 0–20 μM, and in the presence of 0/1/2/5 μM GA/NGA, respectively. Data were plotted with competitive inhibition model using GraphPad Prism7.

Row | Compound | IC50 (EfaUPPS (L91A)) [µM] | effect of mutation on inhibitory effect of compound on EfaUPPS enzyme activity (EfaUPPS (L91A)) | IC50 fold higher than that of the wild-type (EfaUPPS (L91A)) | IC50 (EfaUPPS (I43A) [1]) [µM] | effect of mutation on inhibitory effect of compound on EfaUPPS enzyme activity (EfaUPPS (I43A) [1]; I43A mutant compared with wild-type) | IC50 fold higher than that of the wild-type (EfaUPPS (I43A) [1]; I43A mutant vs wild-type (~3 μM)) | Kd (EfaUPPS (L146A)) [µM] | Kd (EfaUPPS (I43A) [2]) [µM] | growth inhibitory activity (MICs) against clinical strains [3] | bactericidal properties (CFUs after 24 h pretreatment) (E. faecalis ATCC29212) | competition with FPP for binding to EfaUPPS (EfaUPPS)
1 | CC(C)=CCC[C@]1(C)C=Cc2c(O)c3c(c(CC=C(C)C)c2O1)O[C@]12C(=C[C@@H]4C[C@H]1C(C)(C)O[C@@]2(C/C=C(/C)C(=O)O)C4=O)C3=O [GA, gambogic acid] | ~30 | significantly decreased | about 10 fold | ~30 | significantly decreased | about 10 fold | > 50000 | > 50000 | high potency in growth inhibitory activity | potential bactericidal effects | compete with FPP
2 | CC(C)=CCC[C@]1(C)CC(O)c2c(O)c3c(c(CC=C(C)C)c2O1)O[C@]12C(=C[C@@H]4C[C@H]1C(C)(C)O[C@@]2(C/C=C(/C)C(=O)O)C4=O)C3=O (stereo partly drawn) [NGA, neogambogic acid] | ~30 | significantly reduced | about 10 fold | – | – | – | > 50000 | – | high potency in growth inhibitory activity | potential bactericidal effects | compete with FPP
